Some test systems named below: CAKI-1; DU-145; HT-29; Hs-578T; K562; MCF7; MDA-N; MOLT-4; NCI-H522; NCI/ADR-RES; PC-3; SF-539; SK-MEL-5; SNB-19; SW-620; T47D; U-251; CCRF-CEM; HCC 2998.
Holding throughout (assay): NCI-60 cell line screen, 48 h

Molecules are shown by their SMILES.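 Tested at 5 concentrations; 48 h exposure; 96-well plates; endpoints linearly interpolated, else capped at highest concentration. Abbreviation: GI50, concentration required for 50% inhibition of growth.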 The source made the active and inactive calls. Cut-off read from the data, not from the text of the source: active = GI50 up to about 1.1 µM and inactive = higher. A value given as a limit tells only on which side of the number the result lay.

As for `O=C(O)CC1OCC=C2C[N+]3([O-])CCC45c6ccccc6NC4C1C2CC53` (centres undefined), the GI50 in the assay with CAKI-1, in the assay with DU-145, in the assay on HT-29, in the assay with Hs-578T, with K562 and in the assay on MCF7 was > 100 µM (inactive) in each case. The GI50 in the assay with MDA-N, in the assay with MOLT-4, in the assay with NCI-H522, in the assay with NCI/ADR-RES, with PC-3 and in the assay on SF-539 was > 100 µM (inactive) in each case. In addition, the GI50 in the assay with SK-MEL-5, in the assay with SNB-19, in the assay on SW-620, in the assay with T47D and in the assay with U-251 was > 100 µM (inactive) each time.
On to `COc1cccc(C23CCN(C)C(CC(O)C2)C3)c1OC` (centres undefined), for which the GI50 in the assay on CAKI-1, in the assay on CCRF-CEM, with DU-145, in the assay on HT-29, with Hs-578T and with K562 was > 100 µM (inactive) in each case. Further, the GI50 in the assay with MCF7, in the assay on MDA-N, with MOLT-4, with NCI-H522, with NCI/ADR-RES and in the assay on PC-3 was > 100 µM (inactive) each time. For the same compound, the GI50 in the assay with SF-539, in the assay on SK-MEL-5, in the assay on SNB-19, in the assay on SW-620, in the assay with T47D and in the assay with U-251 was > 100 µM (inactive) in each case.
As to `COc1cc2c(cc1OC)[C@@](C)(C(O)C(O)C(C)(C)O)NCC2` (some centres undefined), the GI50 in the assay on CAKI-1, in the assay on CCRF-CEM, in the assay with DU-145, with HT-29, in the assay on Hs-578T and with K562 was > 100 µM (inactive) throughout. Also, the GI50 with MCF7, with MDA-N, with MOLT-4, with NCI-H522, in the assay with NCI/ADR-RES and in the assay with PC-3 was > 100 µM (inactive) each time. The GI50 in the assay on SF-539, in the assay with SK-MEL-5, in the assay on SNB-19, with T47D and in the assay on U-251 was > 100 µM (inactive) each time.
Turning to `Cc1c(/C=N/NC(=S)Nc2ccccc2Cl)c(=O)n(-c2ccccc2)n1C`, the GI50 was 19.7 µM (inactive) in the assay on CAKI-1; 11 µM (inactive) with CCRF-CEM; 60.4 µM (inactive) in the assay on DU-145; 29.4 µM (inactive) in the assay on HT-29; 24 µM (inactive) in the assay with Hs-578T; 27.9 µM (inactive) in the assay with K562. For the same compound, the GI50 is 46.5 µM (inactive) with MCF7; 87.3 µM (inactive) with MDA-N; 20.5 µM (inactive) in the assay with MOLT-4; 22.5 µM (inactive) with NCI-H522; 20.2 µM (inactive) in the assay on NCI/ADR-RES; 43 µM (inactive) with PC-3. Besides, the GI50 with SF-539 was 30.1 µM (inactive); in the assay on SK-MEL-5 it was 32.7 µM (inactive); in the assay on SNB-19 it was 32.6 µM (inactive); in the assay with SW-620, 39.9 µM (inactive); in the assay with T47D, 13 µM (inactive); with U-251, 30.3 µM (inactive).
Regarding `COc1ccc(C2SC(C)C(=O)N2c2nc(-c3nc(-c4ccc(Cl)cc4)cs3)cs2)cc1` (centres undefined), the GI50 was > 100 µM (inactive) in the assay on CAKI-1; 85.3 µM (inactive) in the assay with CCRF-CEM; > 100 µM (inactive) in the assay with HCC 2998; > 100 µM (inactive) in the assay on HT-29; > 100 µM (inactive) in the assay with Hs-578T; > 100 µM (inactive) in the assay on K562. Also, the GI50 is > 100 µM (inactive) in the assay on MCF7; > 100 µM (inactive) with MDA-N; 49.2 µM (inactive) in the assay with MOLT-4; > 100 µM (inactive) in the assay on NCI-H522; > 100 µM (inactive) in the assay on NCI/ADR-RES; 66.8 µM (inactive) in the assay with PC-3. Moreover, the GI50 with SF-539 was > 100 µM (inactive); in the assay on SK-MEL-5, > 100 µM (inactive); in the assay with SNB-19 it was > 100 µM (inactive); in the assay with SW-620, > 100 µM (inactive); with T47D, 46.1 µM (inactive); in the assay with U-251, 84.7 µM (inactive).
Turning to `S=c1c2cn[nH]c2nc2scc(-c3ccc(Cl)cc3)n12`, the GI50 with CAKI-1 was 9.59 µM (inactive); in the assay on CCRF-CEM it was 16.2 µM (inactive); in the assay on HCC 2998, 15.4 µM (inactive); in the assay on HT-29, 16.7 µM (inactive); in the assay on Hs-578T, 8.73 µM (inactive); in the assay with K562 it was 10.9 µM (inactive). In addition, the GI50 in the assay on MCF7 was 18.5 µM (inactive); in the assay on MDA-N it was 4.36 µM (inactive); in the assay on MOLT-4 it was 15.6 µM (inactive); with NCI-H522 it was 24.9 µM (inactive); with NCI/ADR-RES, 13.8 µM (inactive); in the assay on PC-3 it was 12.9 µM (inactive). Also, the GI50 with SF-539 was 17.7 µM (inactive); in the assay on SK-MEL-5, 17.6 µM (inactive); in the assay on SNB-19, 23.6 µM (inactive); in the assay on SW-620, 9.04 µM (inactive); in the assay with T47D, > 10 µM (inactive); in the assay with U-251 it was 12.9 µM (inactive).
Regarding `Cc1cn2cc(-c3cccs3)nc2s1`, the GI50 with CAKI-1 was > 100 µM (inactive); in the assay on CCRF-CEM, 54.6 µM (inactive); in the assay on DU-145, > 40.4 µM (inactive); in the assay on HCC 2998 it was 63.4 µM (inactive); in the assay with HT-29, > 41.2 µM (inactive); in the assay with Hs-578T it was > 100 µM (inactive). Further, the GI50 was 99.3 µM (inactive) in the assay with K562; > 53.5 µM (inactive) with MCF7; > 72.6 µM (inactive) in the assay with MDA-N; 58.7 µM (inactive) in the assay on MOLT-4; > 100 µM (inactive) in the assay with NCI-H522; > 74.3 µM (inactive) in the assay on PC-3. For the same compound, the GI50 in the assay with SF-539 is > 100 µM (inactive); with SK-MEL-5, > 61.8 µM (inactive); in the assay with SNB-19 it was > 100 µM (inactive); in the assay on SW-620, > 100 µM (inactive); in the assay on T47D it was 25.4 µM (inactive); with U-251 it was > 100 µM (inactive).
Turning to `O=[N+]([O-])c1cccc(CSc2nc(O)c3nc[nH]c3n2)c1`, the GI50 is > 100 µM (inactive) in the assay with CAKI-1; 9.46 µM (inactive) with CCRF-CEM; > 100 µM (inactive) in the assay on DU-145; > 100 µM (inactive) in the assay with HT-29; 87.1 µM (inactive) in the assay on Hs-578T; 78.2 µM (inactive) in the assay on K562. For the same compound, the GI50 in the assay with MCF7 is > 100 µM (inactive); in the assay with MDA-N, > 100 µM (inactive); with MOLT-4, > 100 µM (inactive); in the assay on NCI-H522, 76.6 µM (inactive); in the assay on NCI/ADR-RES, > 100 µM (inactive); with PC-3, > 100 µM (inactive). In addition, the GI50 in the assay on SK-MEL-5, in the assay on SNB-19, in the assay with SW-620, in the assay with T47D and in the assay with U-251 was > 100 µM (inactive) each time.
Take `N#Cc1cc(-c2nc3c(F)cccc3s2)ccc1N`: the GI50 with CAKI-1 is 46 µM (inactive); in the assay on CCRF-CEM, 85.5 µM (inactive); in the assay on DU-145, > 100 µM (inactive); in the assay with HT-29 it was > 100 µM (inactive); with Hs-578T, > 100 µM (inactive); with K562, > 100 µM (inactive). For the same compound, the GI50 was 0.133 µM (active) in the assay with MCF7; 47.8 µM (inactive) in the assay with MDA-N; > 100 µM (inactive) in the assay with MOLT-4; > 100 µM (inactive) with NCI-H522; > 100 µM (inactive) with NCI/ADR-RES; > 100 µM (inactive) with PC-3. Further, the GI50 was > 100 µM (inactive) in the assay with SF-539; 56.4 µM (inactive) in the assay on SK-MEL-5; > 100 µM (inactive) in the assay on SNB-19; > 100 µM (inactive) in the assay on SW-620; 0.912 µM (active) in the assay with T47D; > 100 µM (inactive) with U-251.
Regarding `CC(=O)Nc1ncc2c(n1)-c1ccccc1OC2`, the GI50 with CAKI-1 was > 100 µM (inactive); in the assay on CCRF-CEM, > 100 µM (inactive); in the assay on DU-145 it was > 100 µM (inactive); in the assay with HT-29 it was > 100 µM (inactive); in the assay with Hs-578T it was 19.5 µM (inactive); with MCF7, > 100 µM (inactive). Further, the GI50 in the assay on MDA-N, in the assay with MOLT-4, with NCI-H522, in the assay on NCI/ADR-RES, in the assay on PC-3 and in the assay with SF-539 was > 100 µM (inactive) in each case. In addition, the GI50 in the assay on SK-MEL-5, with SNB-19, with SW-620, in the assay on T47D and with U-251 was > 100 µM (inactive) throughout.
On to `CC(C)(C)c1cc(-c2cc(C(C)(C)C)[nH]n2)[nH]n1`, for which the GI50 was > 100 µM (inactive) in the assay on CAKI-1; 39.4 µM (inactive) in the assay on CCRF-CEM; > 100 µM (inactive) in the assay on DU-145; > 100 µM (inactive) in the assay with HCC 2998; > 100 µM (inactive) with HT-29; > 100 µM (inactive) in the assay with Hs-578T. The GI50 in the assay on K562 was 47.5 µM (inactive); in the assay with MCF7, > 100 µM (inactive); with MDA-N, > 100 µM (inactive); with MOLT-4 it was 96.2 µM (inactive); with NCI-H522 it was > 100 µM (inactive); in the assay with PC-3 it was > 100 µM (inactive). Further, the GI50 with SF-539, in the assay on SK-MEL-5, in the assay on SNB-19, in the assay on SW-620, in the assay with T47D and in the assay on U-251 was > 100 µM (inactive) each time.

Values taken from ChEMBL document CHEMBL1201862, “PubChem BioAssay data set” (2004).
